Holding throughout (assay type): cell-based
One assay has as its system survivin protein. Put plainly: Western blot analysis of survivin. For orientation: Immunoblotting shows a protein as a band on a membrane.
Another assay relates to SK-MEL-5. Kind of assay: Sulforhodamine B (SRB) assay. The conditions noted are these: Homo sapiens; SK-MEL-5, Melanoma; 48 hours; read-out: GI50 (SRB in vitro cytotoxicity). As for the experimental part: (§1) Growth inhibitory effect of Compound A on the cells listed below was measured by the sulforhodamine B assay. SW480 cells in 100 μl media were plated in each well of 96-well plate and allowed to attach for 24 hours. Compound A was added to the wells to produce the desired final concentrations, and the plates were incubated at 37° C. for 48 hours. The cells were then fixed by gentle addition of 100 μl of cold (4° C.) 10% trichloroacetic acid to each well, followed by incubation at 4° C. for 1 hour. Plates were washed with deionized water five times and allowed to air dry. The cells were then stained by addition of 100 μl SRB solution (0.4% SRB(w/v) in 1% acetic acid (v/v)) to wells for 15 min. After staining, the plates were quickly washed five times with 1% acetic acid to remove any unbound dye, and allowed to air dry. Bound dye was solubilized with 10 mmol/L Tris base (pH 10.5) prior to reading the plates. The optical density (OD) was read on a plate reader at a wavelength of 515 nm with Molecular Device. Inhibition of growth was expressed as relative viability (% of control) and GI50 was calculated from concentration-response curves after log/probit transformation.
(In general: Sulforhodamine B stains cellular protein and so reports cell mass.)

In a further assay the test system is PC3. Put plainly: Sulforhodamine B (SRB) assay. To be noted: Homo sapiens, PC-3; PC3, Prostate; 48 hours; read-out: GI50 (SRB in vitro cytotoxicity). As for the experimental part: as §1
The subject of another assay is HL60. Kind of assay: Sulforhodamine B (SRB) assay. The conditions noted are these: Homo sapiens, HL-60; HL60, Leukemia; 48 hours; read-out: GI50 (SRB in vitro cytotoxicity). As to the method:
as §1

For the next assay, the system named is DLD-1. Kind of assay: Sulforhodamine B (SRB) assay. To be noted: Homo sapiens; DLD-1, Colon; 48 hours; read-out: GI50 (SRB in vitro cytotoxicity). As for the experimental part:
as §1

Another assay relates to KM12. Kind of assay: Sulforhodamine B (SRB) assay. To be noted: Homo sapiens; KM12, Colon; 48 hours; read-out: GI50 (SRB in vitro cytotoxicity). As for the experimental part:
as §1

Another assay concerns HT1080. Put plainly: Sulforhodamine B (SRB) assay. The conditions noted are these: Homo sapiens, HT-1080; HT1080, listed under Prostate; 48 hours; read-out: GI50 (SRB in vitro cytotoxicity). As to the method: as §1
A further assay relates to CAKI-1. Put plainly: Sulforhodamine B (SRB) assay. The conditions noted are these: Homo sapiens; CAKI-1, Renal; 48 hours; read-out: GI50 (SRB in vitro cytotoxicity). As to the method: as §1
The test system of a further assay is HCC2998. Kind of assay: Sulforhodamine B (SRB) assay. The conditions noted are these: Homo sapiens, HCC 2998; HCC2998, Colon; 48 hours; read-out: GI50 (SRB in vitro cytotoxicity). As to the method: as §1
For the next assay, the system named is A253. Kind of assay: Sulforhodamine B (SRB) assay. The conditions noted are these: Homo sapiens; A253, Melanoma; 48 hours; read-out: GI50 (SRB in vitro cytotoxicity). As for the experimental part:
as §1

Another assay concerns A375. Kind of assay: Sulforhodamine B (SRB) assay. The conditions noted are these: Homo sapiens, A-375; A375, Melanoma; 48 hours; read-out: GI50 (SRB in vitro cytotoxicity). As to the method: as §1
The subject of another assay is K562/VIN. Kind of assay: Sulforhodamine B (SRB) assay. To be noted: Homo sapiens, Leukemia, 48 hours, read-out: GI50 (SRB in vitro cytotoxicity). As for the experimental part: as §1
Another assay concerns M14. Put plainly: Sulforhodamine B (SRB) assay. The conditions noted are these: Homo sapiens; M14, Melanoma; 48 hours; read-out: GI50 (SRB in vitro cytotoxicity). As for the experimental part:
as §1

Another assay relates to HCT116. Put plainly: Sulforhodamine B (SRB) assay. To be noted: Homo sapiens, HCT-116; HCT116, Colon; 48 hours; read-out: GI50 (SRB in vitro cytotoxicity). As for the experimental part:
as §1

The test system of a further assay is MCF7. Put plainly: Sulforhodamine B (SRB) assay. To be noted: Homo sapiens; MCF7, Breast; 48 hours; read-out: GI50 (SRB in vitro cytotoxicity). As to the method: as §1
The next assay has as its system K562. Put plainly: Sulforhodamine B (SRB) assay. The conditions noted are these: Homo sapiens; K562, Leukemia; 48 hours; read-out: GI50 (SRB in vitro cytotoxicity). As for the experimental part: as §1
The subject of another assay is NCI H460. Put plainly: Sulforhodamine B (SRB) assay. The conditions noted are these: Homo sapiens; NCI H460, Lung; 48 hours; read-out: GI50 (SRB in vitro cytotoxicity). As to the method:
as §1

The test system of the next assay is ACHN. Put plainly: Sulforhodamine B (SRB) assay. The conditions noted are these: Homo sapiens, Renal, 48 hours, read-out: GI50 (SRB in vitro cytotoxicity). As to the method:
as §1

A further assay relates to SW480-Kribb. Kind of assay: Sulforhodamine B (SRB) assay. To be noted: Colon, 48 hours, read-out: GI50 (SRB in vitro cytotoxicity). As to the method: as §1
For another assay, the system named is COLO205. Kind of assay: Sulforhodamine B (SRB) assay. To be noted: Homo sapiens, COLO 205; COLO205, Colon; 48 hours; read-out: GI50 (SRB in vitro cytotoxicity). As to the method:
as §1

The test system of a further assay is HCT15. Kind of assay: Sulforhodamine B (SRB) assay. The conditions noted are these: Homo sapiens, HCT-15; HCT15, Colon; 48 hours; read-out: GI50 (SRB in vitro cytotoxicity). As to the method: as §1
Another assay deals with RPMI8226. Kind of assay: Sulforhodamine B (SRB) assay. To be noted: Homo sapiens, RPMI-8226; RPMI8226, Leukemia; 48 hours; read-out: GI50 (SRB in vitro cytotoxicity). As for the experimental part:
as §1

The subject of the next assay is CRL1579. Put plainly: Sulforhodamine B (SRB) assay. To be noted: CRL1579, Melanoma; 48 hours; read-out: GI50 (SRB in vitro cytotoxicity). As to the method:
as §1

The test system of a further assay is K562/ADR. Kind of assay: Sulforhodamine B (SRB) assay. The conditions noted are these: Homo sapiens, Leukemia, 48 hours, read-out: GI50 (SRB in vitro cytotoxicity). As to the method:
as §1

In assay [1] the test system is caspase-3/7 in SW480 cells. Kind of assay: Caspase-3/7 activity assay. To be noted: 25 μM, 24 hours, compared to CCD18Co cells. As for the experimental part: (§2) SW480, HCT116, and CCD18Co cells were plated at 10^5 cells per well (96-well plates) for 24 hours prior to treatment. […] 24 hours post treatment, cells were lysed and caspase activity was measured using a caspase-3/7 activity kit (Apo-One Homogeneous caspase-3/7 assay, #G77905, Promega). Relative fluorescence units (RFU) were obtained by subtracting the unit values of the blank (control, without cells) from the experimental measured values.

The test system of assay [2] is caspase-3/7 in HCT116 cells. Kind of assay: Caspase-3/7 activity assay. The conditions noted are these: 25 μM, 24 hours, compared to CCD18Co cells. As to the method:
as §2

Structures are written as SMILES. Converted amounts (≈) assume the structure as drawn.

Turning to `O=c1[nH]cc(F)c(=O)[nH]1` [Compound 5-FU, 5-fluorouracil], in the assay with survivin protein (5 μM), the “amount of survivin protein (Western blot)” value is reported as “reduced the amount of the survivin protein”. The GI50 (as a rule, the concentration giving 50% growth inhibition) is 2.43 µg/mL (≈ 18.7 µM) with SK-MEL-5; greater than 10 µg/mL with PC3; 7.01 µg/mL (≈ 53.9 µM) with HL60; greater than 10 µg/mL in the assay on DLD-1; 2.73 µg/mL (≈ 21 µM) with KM12; 0.798 µg/mL (≈ 6.13 µM) in the assay with HT1080. Besides, the GI50 in the assay on CAKI-1 amounted to 0.925 µg/mL (≈ 7.11 µM); with HCC2998, 5.49 µg/mL (≈ 42.2 µM); in the assay with A253 it was 2.93 µg/mL (≈ 22.5 µM); in the assay with A375, 1.46 µg/mL (≈ 11.3 µM); in the assay with K562/VIN, 7.07 µg/mL (≈ 54.4 µM); in the assay with M14, 1.23 µg/mL (≈ 9.42 µM). Further, the GI50 in the assay with HCT116 was 1.04 µg/mL (≈ 7.99 µM); with MCF7 it was 1.75 µg/mL (≈ 13.5 µM); with K562 it was 6.13 µg/mL (≈ 47.1 µM); in the assay on NCI H460 it was 1.4 µg/mL (≈ 10.7 µM); in the assay with ACHN, 5.06 µg/mL (≈ 38.9 µM); with SW480-Kribb, greater than 10 µg/mL. For the same compound, the 50% growth inhibitory concentration (GI50) was 1.13 µg/mL (≈ 8.69 µM) with COLO205; 1.18 µg/mL (≈ 9.06 µM) with HCT15; greater than 10 µg/mL in the assay on RPMI8226; greater than 10 µg/mL in the assay on CRL1579; greater than 10 µg/mL with K562/ADR.

On to `O=C1[C@H](Cc2ccc(O)cc2)N2C(=O)CCN(C(=O)NCc3ccccc3)[C@H]2CN1Cc1cccc2ccccc12` [Compound D], for which the caspase-3/7 activity result in [1] and in assay [2] was “selectively activates caspases in colon carcinoma cell lines” each time. The “amount of survivin protein (Western blot)” value in the assay on survivin protein (10 μM) and with survivin protein (25 μM) was “reduced the amount of the survivin protein” throughout.

These data come from patent US7671054B1, “Reverse-turn mimetics and method relating thereto” (Choongwae Pharma Corporation, priority 2001, dated 2010).
